Source: US9873704B2, “Heterocyclic compounds and their uses” (Amgen Inc., priority 2009, dated 2018)

target: T1, p110δ (Homo sapiens, UniProt O00329); experiment: not given; conditions: cited from earlier work
T1 sequence (O00329 1-1044): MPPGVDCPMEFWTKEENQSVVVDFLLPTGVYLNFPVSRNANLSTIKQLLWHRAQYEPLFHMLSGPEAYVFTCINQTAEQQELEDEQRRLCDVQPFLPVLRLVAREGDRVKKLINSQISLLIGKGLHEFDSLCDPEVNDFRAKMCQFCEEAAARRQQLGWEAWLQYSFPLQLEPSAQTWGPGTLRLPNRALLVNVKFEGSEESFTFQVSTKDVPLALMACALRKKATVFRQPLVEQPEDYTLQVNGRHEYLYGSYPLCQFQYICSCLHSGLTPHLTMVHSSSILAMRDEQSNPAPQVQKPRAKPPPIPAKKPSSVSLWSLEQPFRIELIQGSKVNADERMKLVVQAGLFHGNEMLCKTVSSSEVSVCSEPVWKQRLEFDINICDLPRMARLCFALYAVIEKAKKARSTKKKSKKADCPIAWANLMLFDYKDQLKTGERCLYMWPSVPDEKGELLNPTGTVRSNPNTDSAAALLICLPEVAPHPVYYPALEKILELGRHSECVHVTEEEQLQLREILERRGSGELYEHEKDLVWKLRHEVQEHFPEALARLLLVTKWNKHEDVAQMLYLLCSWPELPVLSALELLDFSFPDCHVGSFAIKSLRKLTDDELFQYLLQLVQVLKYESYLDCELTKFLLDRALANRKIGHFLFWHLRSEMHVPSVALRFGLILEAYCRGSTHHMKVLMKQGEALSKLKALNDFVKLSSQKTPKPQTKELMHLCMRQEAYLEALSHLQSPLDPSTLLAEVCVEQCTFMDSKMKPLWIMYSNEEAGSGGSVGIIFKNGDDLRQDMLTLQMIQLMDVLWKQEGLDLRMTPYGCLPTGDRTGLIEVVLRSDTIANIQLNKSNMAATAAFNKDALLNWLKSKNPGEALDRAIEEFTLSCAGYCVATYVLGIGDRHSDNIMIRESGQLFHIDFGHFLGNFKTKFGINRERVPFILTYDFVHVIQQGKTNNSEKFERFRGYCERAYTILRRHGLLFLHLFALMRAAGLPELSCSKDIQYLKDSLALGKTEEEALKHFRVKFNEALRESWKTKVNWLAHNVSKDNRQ

| Structure (SMILES) | inhibits p110δ |
| --- | --- |
| Cc1ccccc1-n1c(Cn2cnc3c(N)ncnc32)nc2cccc(C)c2c1=O [IC87114] | high nanomolar range (triple digit) |

target: T2, PI3Kδ (Homo sapiens, UniProt O00329); experiment: PI3Kδ Alphascreen assay; format: biochemical; conditions: not given
T2 construct: Full length p110 subunits of PI3k α, β and δ, N-terminally labeled with polyHis tag; polyHis (N); made in house; host or cells: Sf9 insect cells (baculovirus)
T2 sequence (P27986 whole entry partner, one chain of several): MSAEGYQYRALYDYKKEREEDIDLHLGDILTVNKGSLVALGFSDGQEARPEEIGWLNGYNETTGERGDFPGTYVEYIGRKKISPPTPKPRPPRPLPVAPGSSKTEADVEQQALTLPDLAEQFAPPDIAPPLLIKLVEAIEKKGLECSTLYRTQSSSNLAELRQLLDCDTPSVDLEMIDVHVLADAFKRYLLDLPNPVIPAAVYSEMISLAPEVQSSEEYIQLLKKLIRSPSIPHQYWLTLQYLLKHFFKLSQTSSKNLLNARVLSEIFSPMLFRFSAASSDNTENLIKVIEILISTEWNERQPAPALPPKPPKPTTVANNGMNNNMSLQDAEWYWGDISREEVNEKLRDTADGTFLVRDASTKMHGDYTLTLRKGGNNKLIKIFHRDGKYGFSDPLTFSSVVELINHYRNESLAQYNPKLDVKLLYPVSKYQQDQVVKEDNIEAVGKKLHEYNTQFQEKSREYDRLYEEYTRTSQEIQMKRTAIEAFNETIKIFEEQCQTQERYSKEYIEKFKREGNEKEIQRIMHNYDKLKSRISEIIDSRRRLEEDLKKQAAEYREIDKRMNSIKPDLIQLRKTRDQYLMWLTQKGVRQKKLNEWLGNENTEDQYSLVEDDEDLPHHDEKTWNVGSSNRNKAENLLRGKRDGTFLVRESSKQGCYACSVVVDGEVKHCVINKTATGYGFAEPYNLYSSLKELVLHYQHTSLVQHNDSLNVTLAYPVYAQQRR
Experimental: Full length p110 subunits of PI3k α, β and δ, N-terminally labeled with polyHis tag, were coexpressed with p85 with Baculo virus expression vectors in sf9 insect cells. P110/p85 heterodimers were purified by sequential Ni-NTA, Q-HP, Superdex-100 chromatography. Purified α, β and δ isozymes were stored at −20° C. in 20 mM Tris, pH 8, 0.2M NaCl, 50% glycerol, 5 mM DTT, 2 mM Na cholate. […] The γ isozyme was purified by sequential Ni-NTA, Superdex-200, Q-HP chromatography. The γ isozyme was stored frozen at −80° C. in NaH2PO4, pH 8, 0.2M NaCl, 1% ethylene glycol, 2 mM β-mercaptoethanol.
A PI3K Alphascreen® assay (PerkinElmer, Waltham, Mass.) was used to measure the activity of a panel of four phosphoinositide 3-kinases: PI3Kα, PI3Kβ, PI3Kγ, and PI3Kδ. Enzyme reaction buffer was prepared using sterile water (Baxter, Deerfield, Ill.) and 50 mM Tris HCl pH 7, 14 mM MgCl2, 2 mM sodium cholate, and 100 mM NaCl. 2 mM DTT was added fresh the day of the experiment. The Alphascreen buffer was made using sterile water and 10 mM Tris HCl pH 7.5, 150 mM NaCl, 0.10% Tween 20, and 30 mM EDTA. 1 mM DTT was added fresh the day of the experiment. Compound source plates used for this assay were 384-well Greiner clear polypropylene plates containing test compounds at 5 mM and diluted 1:2 over 22 concentrations. Columns 23 and 24 contained only DMSO as these wells comprised the positive and negative controls, respectively. Source plates were replicated by transferring 0.5 uL per well into 384-well Optiplates (PerkinElmer, Waltham, Mass.).
Each PI3K isoform was diluted in enzyme reaction buffer to 2× working stocks. […] PI(4,5)P2 (Echelon Biosciences, Salt Lake City, Utah) was diluted to 10 μM and ATP was diluted to 20 μM. This 2× stock was used in the assays for PI3Kα and PI3Kβ. For assay of PI3Kγ and PI3Kδ, PI(4,5)P2 was diluted to 10 μM and ATP was diluted to 8 μM to prepare a similar 2× working stock. Alphascreen reaction solutions were made using beads from the anti-GST Alphascreen kit (PerkinElmer, Waltham, Mass.). Two 4× working stocks of the Alphascreen reagents were made in Alphascreen reaction buffer. In one stock, biotinylated-IP4 (Echelon Biosciences, Salt Lake City, Utah) was diluted to 40 nM and streptavidin-donor beads were diluted to 80 μg/mL. In the second stock, PIP3-binding protein (Echelon Biosciences, Salt Lake City, Utah) was diluted to 40 nM and anti-GST-acceptor beads were diluted to 80 μg/mL.
10 μL/well of the appropriate substrate 2× stock (containing 20 μM ATP for the PI3Kα and β assays and containing 8 μM ATP for the PI3Kγ and δ assays) was then added to Columns 1-24 of all plates. Plates were then incubated at room temperature for 20 minutes. In the dark, 10 μL/well of the donor bead solution was added to columns 1-24 of the plates to quench the enzyme reaction. The plates were incubated at room temperature for 30 minutes. Still in the dark, 10 μL/well of the acceptor bead solution was added to columns 1-24 of the plates. The plates were then incubated in the dark for 1.5 hours. The plates were read on an Envision multimode Plate Reader (PerkinElmer, Waltham, Mass.) using a 680 nm excitation filter and a 520-620 nm emission filter.

| Ki [nM] | Structure (SMILES) |
| --- | --- |
| 1.64 | C[C@H](Nc1ncnc(N)c1C#N)c1nc2ccc(F)cc2c(C(=O)NC2CC2)c1-c1ccccn1 [(S)-2-(1-(6-Amino-5-cyanopyrimidin-4-ylamino)ethyl)-N-cyclopropyl-6-fluoro-3-(pyridin-2-yl)quinoline-4-carboxamide] |
| 68.4 | COc1c(-c2cc(F)cc(F)c2)c([C@H](C)Nc2ncnc(N)c2C#N)nc2ccc(F)cc12 [(S)-4-Amino-6-(1-(3-(3,5-difluorophenyl)-6-fluoro-4-methoxyquinolin-2-yl)-ethylamino)pyrimidine-5-carbonitrile] |
| 1.3 | C[C@H](Nc1ncnc(N)c1C#N)c1nc2cccc(F)c2c(S(C)(=O)=O)c1-c1ccccc1 [(S)-4-Amino-6-(1-(5-fluoro-4-(methylsulfonyl)-3-phenylquinolin-2-yl)ethylamino)pyrimidine-5-carbonitrile] |
| 130 | C[C@H](Nc1ncnc(N)c1C#N)c1nc2ccc(F)cc2cc1-c1cccc(S(C)(=O)=O)n1 [(S)-4-Amino-6-(1-(6-fluoro-3-(6-(methylsulfonyl)pyridin-2-yl)quinolin-2-yl)ethylamino)pyrimidine-5-carbonitrile] |
| 7.67 | C[C@@H](c1nc2ccc(F)cc2cc1-c1ccccn1)n1nc(C#N)c2c(N)ncnc21 [(S)-4-amino-1-(1-(6-fluoro-3-(pyridin-2-yl)quinolin-2-yl)ethyl)-1H-pyrazolo[3,4-d]pyrimidine-3-carbonitrile] |
| 1.18 | COc1c(-c2ccccc2)c([C@H](C)Nc2ncnc(N)c2C#N)nc2ccc(F)cc12 [(S)-4-amino-6-(1-(6-fluoro-4-methoxy-3-phenylquinolin-2-yl)ethylamino)pyrimidine-5-carbonitrile] |
| 4.15 | C[C@H](Nc1ncnc2[nH]cnc12)c1nc2ccc(F)cc2cc1-c1ccccn1 [(S)—N-(1-(6-Fluoro-3-(pyridin-2-yl)quinolin-2-yl)ethyl)-9H-purin-6-amine] |
| 1.12 | C[C@H](Nc1ncnc2[nH]cnc12)c1nc2ccc(F)cc2c(S(C)(=O)=O)c1-c1ccccc1 [(S)—N-(1-(6-fluoro-4-(methylsulfonyl)-3-phenylquinolin-2-yl)ethyl)-9H-purin-6-amine] |
| 1.56 | COC(=O)c1c(-c2ccccc2)c(C(C)Nc2ncnc(N)c2C#N)nc2ccc(F)cc12 (stereo not shown) [Methyl 2-(1-(6-amino-5-cyanopyrimidin-4-ylamino)ethyl)-6-fluoro-3-phenylquinoline-4-carboxylate] |
| 3730 | CC(Nc1cc(N)ncn1)c1nc2ccc(F)cc2cc1-c1ccccn1 (stereo not shown) [N4-(1-(6-Fluoro-3-(pyridin-2-yl)quinolin-2-yl)ethyl)pyrimidine-4,6-diamine] |
| 2.24 | CC(Nc1ncnc2[nH]cnc12)c1nc2cccc(F)c2c(S(C)(=O)=O)c1-c1ccccc1 (stereo not shown) [N-(1-(5-Fluoro-4-(methylsulfonyl)-3-phenylquinolin-2-yl)ethyl)-9H-purin-6-amine] |
| 11600 | CC(Nc1ccncn1)c1nc2ccc(F)cc2cc1-c1ccccn1 (stereo not shown) [N-(1-(6-Fluoro-3-(pyridin-2-yl)quinolin-2-yl)ethyl)pyrimidin-4-amine] |
| 2.34 | CC(Nc1ncnc2[nH]cnc12)c1nc2ccc(F)cc2c(S(C)(=O)=O)c1-c1ccccc1 (stereo not shown) [N-(1-(6-Fluoro-4-(methylsulfonyl)-3-phenylquinolin-2-yl)ethyl)-9H-purin-6-amine] |
| 5520 | C[C@@H](Nc1ccnc(N)n1)c1nc2ccc(F)cc2cc1-c1ccccn1 [N~4~-((1R)-1-(6-fluoro-3-(2-pyridinyl)-2-quinolinyl)ethyl)-2,4-pyrimidinediamine] |

tested on: protein kinases; experiment: not given; conditions: cited from earlier work

| Structure (SMILES) | activity against any protein kinases tested |
| --- | --- |
| Cc1ccccc1-n1c(Cn2cnc3c(N)ncnc32)nc2cccc(C)c2c1=O [IC87114] | no activity |

tested on: murine model of asthma; experiment: not given; conditions: ovalbumin-induced airway inflammation; cited from earlier work

| Structure (SMILES) | inflammation and disease in a murine model of asthma |
| --- | --- |
| Cc1ccccc1-n1c(Cn2cnc3c(N)ncnc32)nc2cccc(C)c2c1=O [IC87114] | significantly ameliorate inflammation and disease |

tested on: model of systemic lupus erythematosis; experiment: not given; conditions: in vivo; cited from earlier work

| Structure (SMILES) | onset of disease in a model of systemic lupus erythematosis |
| --- | --- |
| O=C1NC(=O)/C(=C\c2ccc3nccnc3c2)S1 [AS 605240] | delay onset of disease |

tested on: mouse model of rheumatoid arthritis; experiment: not given; conditions: in vivo; cited from earlier work

| Structure (SMILES) | efficacy in a mouse model of rheumatoid arthritis |
| --- | --- |
| O=C1NC(=O)/C(=C\c2ccc3nccnc3c2)S1 [AS 605240] | efficacious |
